“And” between values parts separate entries of the source, which are not always exact repeats. Identical values can stand only once. Toxic doses and inconclusive results are not listed. Rule as the data show it: active = T/C of 150% or more; inactive = T/C below 125%.
System: L1210 leukemia ip in BDF1 mice, survival T/C
Assay: NCI In Vivo Anticancer Drug Screen. Data for tumor model L1210 Leukemia (intraperitoneal) in B6D2F1 (BDF1) mice
Conditions: endpoint: mean survival time, higher = longer survival
In short: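 Tumor cells were implanted, animals were treated, and survival was followed. The result divides the treated measurement by the vehicle-control measurement.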

[1] = dose: 3.12 mg/kg/injection, schedule: Q01DX009 (ip), vehicle: saline
[2] = dose: 6.25 mg/kg/injection, schedule: Q01DX009 (ip), vehicle: saline
[3] = dose: 12.5 mg/kg/injection, schedule: Q01DX009 (ip), vehicle: saline
[4] = dose: 25.0 mg/kg/injection, schedule: Q04DX003 (ip), vehicle: saline
[5] = dose: 50.0 mg/kg/injection, schedule: Q04DX003 (ip), vehicle: saline
[6] = dose: 100.0 mg/kg/injection, schedule: Q01DX001 (ip), vehicle: carboxymethylcellulose (CMC)
[7] = dose: 100.0 mg/kg/injection, schedule: Q04DX003 (ip), vehicle: saline
[8] = dose: 200.0 mg/kg/injection, schedule: Q01DX001 (ip), vehicle: carboxymethylcellulose (CMC)
[9] = dose: 200.0 mg/kg/injection, schedule: Q04DX003 (ip), vehicle: saline
[10] = dose: 400.0 mg/kg/injection, schedule: Q01DX001 (ip), vehicle: carboxymethylcellulose (CMC)
[11] = dose: 25.0 mg/kg/injection, schedule: Q01DX009 (ip), vehicle: saline
[12] = dose: 50.0 mg/kg/injection, schedule: Q01DX009 (ip), vehicle: saline
[13] = dose: 100.0 mg/kg/injection, schedule: Q01DX001 (ip), vehicle: saline
[14] = dose: 200.0 mg/kg/injection, schedule: Q01DX001 (ip), vehicle: saline
[15] = dose: 400.0 mg/kg/injection, schedule: Q01DX001 (ip), vehicle: saline
[16] = dose: 100.0 mg/kg/injection, schedule: Q01DX009 (ip), vehicle: saline
[17] = dose: 200.0 mg/kg/injection, schedule: Q01DX009 (ip), vehicle: saline

Measured: T/C

[CH3][Sn]([CH3])([CH3])[O]C(=O)CCl
inactive: dose: 0.78 mg/kg/injection, schedule: Q01DX009 (ip), vehicle: Klucel (hydroxypropylcellulose) (HPC) 97 % of control | dose: 0.78 mg/kg/injection, schedule: Q04DX002 (ip), vehicle: Klucel (hydroxypropylcellulose) (HPC) 97 % of control | dose: 1.56 mg/kg/injection, schedule: Q01DX009 (ip), vehicle: Klucel (hydroxypropylcellulose) (HPC) 87 % of control | dose: 1.56 mg/kg/injection, schedule: Q04DX002 (ip), vehicle: Klucel (hydroxypropylcellulose) (HPC) 93 % of control | dose: 3.12 mg/kg/injection, schedule: Q04DX002 (ip), vehicle: Klucel (hydroxypropylcellulose) (HPC) 93 % of control

Nc1ncnc(N)c1NC(=O)Cc1cccc([N+](=O)[O-])c1
inactive: dose: 12.5 mg/kg/injection, schedule: Q01DX001 (ip), vehicle: Klucel (hydroxypropylcellulose) (HPC) 101 % of control | dose: 25.0 mg/kg/injection, schedule: Q01DX001 (ip), vehicle: Klucel (hydroxypropylcellulose) (HPC) 110 % of control | dose: 50.0 mg/kg/injection, schedule: Q01DX001 (ip), vehicle: Klucel (hydroxypropylcellulose) (HPC) 96 % of control and 103 % of control

CN1CCN(CCC=C2c3ccccc3Sc3ccc(S(=O)(=O)N(C)C)cc32)CC1
inactive: dose: 0.39 mg/kg/injection, schedule: Q01DX009 (ip), vehicle: saline 114 % of control | dose: 0.78 mg/kg/injection, schedule: Q01DX009 (ip), vehicle: saline 101 % of control | dose: 1.56 mg/kg/injection, schedule: Q01DX009 (ip), vehicle: saline 121 % of control | [1] 114 % of control | [2] 114 % of control | [3] 102 % of control | [4] 95 % of control | [5] 95 % of control | [6] 121 % of control | [7] 122 % of control | [8] 103 % of control | [9] 104 % of control | [10] 118 % of control

CC(CC1c2ccccc2CCc2ccccc21)CN(C)C (stereo not drawn)
inactive: [2] 95 % of control | [3] 104 % of control | [11] 95 % of control | [4] 102 % of control | [12] 101 % of control | [5] 107 % of control | [7] 120 % of control

Cc1ccccc1C1=CCCCC1
inactive: dose: 50.0 mg/kg/injection, schedule: Q01DX001 (ip), vehicle: carboxymethylcellulose (CMC) 87 % of control | [6] 104 % of control | [8] 96 % of control | [10] 97 % of control

O=c1[nH]nc(S(=O)(=O)N2CCOCC2)c(=O)[nH]1
inactive: [6] 98 % of control | [8] 96 % of control | [10] 96 % of control

Cc1cn(C2CCCO2)c(=O)[nH]c1=O (stereo not drawn)
inactive: [13] 106 % of control | [14] 101 % of control | [15] 95 % of control

CC(=O)OC1CCCC1OC(=O)c1ccc([N+](=O)[O-])cc1 (stereo not drawn)
inactive: dose: 100.0 mg/kg/injection, schedule: Q04DX003 (ip), vehicle: other 106 % of control | dose: 200.0 mg/kg/injection, schedule: Q04DX003 (ip), vehicle: other 96 % of control | dose: 400.0 mg/kg/injection, schedule: Q04DX003 (ip), vehicle: other 95 % of control

CCN(CC)CCNC(Cc1ccccc1)c1ccc(OCc2ccccc2)cc1 (stereo not drawn)
inactive: [6] 100 % of control | [8] 96 % of control | [10] 96 % of control

O=C1/C(=C/c2ccc(Cl)cc2)CCc2ccccc21
inactive: [13] 101 % of control | [16] 97 % of control | [14] 101 % of control | [17] 96 % of control | [15] 97 % of control | dose: 400.0 mg/kg/injection, schedule: Q01DX009 (ip), vehicle: saline 86 % of control

CN(C)CCOC(c1ccccc1)c1ccccc1
inactive: [1] 92 % of control and 96 % of control | [2] 102 % of control and 107 % of control | [3] 100 % of control and 114 % of control | [11] 100 % of control and 102 % of control | [4] 97 % of control | [12] 117 % of control and 91 % of control | [5] 111 % of control

Cc1ccccc1OC(=O)Nc1ccc(C(=O)O)c(O)c1
inactive: dose: 100.0 mg/kg/injection, schedule: Q01DX001 (ip), vehicle: saline with Tween-80 93 % of control | dose: 100.0 mg/kg/injection, schedule: Q01DX009 (ip), vehicle: saline with Tween-80 94 % of control | dose: 200.0 mg/kg/injection, schedule: Q01DX001 (ip), vehicle: saline with Tween-80 96 % of control | dose: 200.0 mg/kg/injection, schedule: Q01DX009 (ip), vehicle: saline with Tween-80 97 % of control | dose: 400.0 mg/kg/injection, schedule: Q01DX001 (ip), vehicle: saline with Tween-80 93 % of control

CC([NH-])C(=O)O.O=C(O)CN(CC(=O)O)CC(=O)O.[Co+2]
inactive: [12] 110 % of control | [16] 103 % of control | [7] 104 % of control | [17] 93 % of control | [9] 106 % of control | dose: 400.0 mg/kg/injection, schedule: Q04DX003 (ip), vehicle: saline 100 % of control

From PubChem BioAssay AID248 (DTP/NCI, 2004)
